Laboratory results: ChEMBL document CHEMBL3351457, “Design and synthesis of 8-hydroxyquinoline-based radioprotective agents” (Bioorg Med Chem, 2014)
Active and inactive are the calls of the source. No cut-off for these calls is given here.

Columns and labels:
MOLT-4 [1] = experiment: Inhibition of apoptosis in gamma-irradiated human MOLT4 cells preincubated for 1 hr at 100 to 400 uM before gamma-irradiation measured after 18 hrs by erythrosine B dye-exclusion test; format: functional, cell-based
MOLT-4 [2] = experiment: Cytotoxicity against human MOLT4 cells at 100 to 400 uM after 18 hrs by erythrosine B dye-exclusion test; format: cell-based; details: molt-4, 18 h
MOLT-4 [3] = experiment: Inhibition of apoptosis in gamma-irradiated human MOLT4 cells compound treated at 100 to 400 uM for 3 hrs post gamma-irradiation after 18 hrs by erythrosine B dye-exclusion test; format: functional, cell-based
MOLT-4 [4] = experiment: Radioprotective activity against gamma-irradiated human MOLT4 cells preincubated for 1 hr at 100 to 400 uM before gamma-irradiation measured after 18 hrs by erythrosine B dye-exclusion test; format: functional, cell-based
[5] = Antioxidant activity assessed as DPPH free radical scavenging activity by UV-vis spectrophotometry; format: physicochemical
Jurkat [6] = experiment: Radioprotective activity against gamma-irradiated p53-inactive human Jurkat cells at after 18 hrs by erythrosine B dye-exclusion test; format: functional, cell-based
[7] = target: Cellular tumor antigen p53 (Homo sapiens) (UniProt P04637); experiment: Binding affinity to recombinant FLAG-p53 (unknown origin) assessed as confirmational change measured after 12 hrs by CD spectroscopy in presence of zinc(II) chelators
Sequence of Cellular tumor antigen p53 (Homo sapiens) (P04637 whole entry, looked up): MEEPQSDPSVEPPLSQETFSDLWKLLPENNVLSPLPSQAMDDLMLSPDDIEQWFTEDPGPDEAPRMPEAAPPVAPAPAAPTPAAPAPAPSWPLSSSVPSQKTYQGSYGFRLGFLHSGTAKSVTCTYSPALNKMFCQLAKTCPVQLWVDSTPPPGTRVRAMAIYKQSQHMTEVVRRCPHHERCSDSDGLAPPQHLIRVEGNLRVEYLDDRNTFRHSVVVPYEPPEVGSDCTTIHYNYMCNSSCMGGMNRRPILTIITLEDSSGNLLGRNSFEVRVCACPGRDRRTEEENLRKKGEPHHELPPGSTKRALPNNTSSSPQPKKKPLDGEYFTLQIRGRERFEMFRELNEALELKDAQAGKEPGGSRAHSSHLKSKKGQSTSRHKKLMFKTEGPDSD

[8] = target: Cellular tumor antigen p53 (Homo sapiens) (UniProt P04637); experiment: Inhibition of recombinant FLAG-p53 (unknown origin) binding to FITC-labeled double-stranded oligonucleotide measured after 3 hrs by EMSA in presence of zinc(II) chelators
Jurkat [9] = experiment: Cytotoxicity against p53-inactive human Jurkat cells at after 18 hrs by erythrosine B dye-exclusion test; format: cell-based
MOLT-4 [10] = experiment: Radioprotective activity against gamma-irradiated human MOLT4 cells preincubated for 1 hr before gamma-irradiation measured after 18 hrs by erythrosine B dye-exclusion test; format: functional, cell-based
MOLT-4 [11] = experiment: Radioprotective activity against gamma-irradiated human MOLT4 cells preincubated for 1 hr at <50 uM before gamma-irradiation measured after 18 hrs by erythrosine B dye-exclusion test; format: functional, cell-based
MOLT-4 [12] = experiment: Cytotoxicity against human MOLT4 cells at 200 to 300 uM after 18 hrs by erythrosine B dye-exclusion test; format: cell-based; details: molt-4, 18 h
[13] = Stability of the compound assessed as hydrolysis at 37 degC after 18 hrs; format: physicochemical

Compound: CNS(=O)(=O)c1ccc(OC)c2nc(C)ccc12
- apoptosis inhibition (active/inactive) (MOLT-4 [1]): Active
- Activity (MOLT-4 [2]): Non-toxic

Compound: CNS(=O)(=O)c1cc(S(=O)(=O)NC)c2ccc(C)nc2c1O
- inhibition (MOLT-4 [3]): Active
- Activity (MOLT-4 [4]): Active
- Activity [5]: Not Active
- Activity (MOLT-4 [2]): Non-toxic
- Activity (Jurkat [6]): inactive
- Activity [7]: inactive
- inhibition [8]: inactive
- Activity (Jurkat [9]): Non-toxic
- Activity (MOLT-4 [10]): Dose-dependent effect

Compound: c1ccc2ncccc2c1
- Activity (MOLT-4 [4]): inactive

Compound: Cc1ccc2c(S(=O)(=O)N3CCCNCC3)cc(S(=O)(=O)N3CCCNCC3)c(O)c2n1
- Activity (MOLT-4 [4]): Active

Compound: Cc1ccc2c(S(=O)(=O)N(C)C)cc(S(=O)(=O)N(C)C)c(O)c2n1
- Activity (MOLT-4 [2]): Toxic

Compound: COc1c(I)cc(S(=O)(=O)N(C)C)c2ccc(C)nc12
- apoptosis inhibition (active/inactive) (MOLT-4 [1]): Active
- Activity (MOLT-4 [2]): Toxic

Compound: CN(C)S(=O)(=O)c1cc(Br)c(O)c2ncccc12
- Activity (MOLT-4 [4]): Active

Compound: c1ccc(CNCCNCc2ccccn2)nc1
- Activity (MOLT-4 [11]): Active
- Activity [7]: Active

Compound: CNS(=O)(=O)c1cc(S(=O)(=O)NC)c2cccnc2c1O
- Activity (MOLT-4 [4]): Active
- Activity (MOLT-4 [11]): inactive
- Activity (MOLT-4 [10]): Dose-dependent effect

Compound: c1ccc2cnccc2c1
- Activity (MOLT-4 [4]): inactive

Compound: CCOc1c(S(=O)(=O)N(CC)CC)cc(S(=O)(=O)N(CC)CC)c2ccc(C)nc12
- Activity (MOLT-4 [2]): Toxic

Compound: COc1ccc(S(=O)(=O)N(C)C)c2ccc(C)nc12
- apoptosis inhibition (active/inactive) (MOLT-4 [1]): Active
- Activity (MOLT-4 [2]): Non-toxic

Compound: CN(C)S(=O)(=O)c1ccc(O)c2ncccc12
- Activity (MOLT-4 [4]): Active

Compound: O=C1O[C@H]([C@@H](O)CO)C(O)=C1O
- Activity (MOLT-4 [11]): Active

Compound: CCOc1c(I)cc(S(=O)(=O)N(C)C)c2ccc(C)nc12
- Activity (MOLT-4 [2]): Toxic

Compound: c1ccc(CN(CCN(Cc2ccccn2)Cc2ccccn2)Cc2ccccn2)nc1
- Activity (MOLT-4 [11]): Active

Compound: VITAMIN E
- Activity (MOLT-4 [11]): Active

Compound: Cc1ccc2c(S(=O)(=O)N(C)C)ccc(O)c2n1
- Activity (MOLT-4 [4]): Active
- Activity (MOLT-4 [2]): Non-toxic

Compound: CNS(=O)(=O)c1cc(S(=O)(=O)NC)c2ccc(C)nc2c1OS(C)(=O)=O
- Activity (MOLT-4 [12]): Toxic
- Stability [13]: Unstable

Compound: COc1c(Br)cc(S(=O)(=O)N(C)C)c2ccc(C)nc12
- apoptosis inhibition (active/inactive) (MOLT-4 [1]): Active
- Activity (MOLT-4 [2]): Toxic

Compound: Oc1ccc(Cl)c2ccccc12
- Activity (MOLT-4 [4]): inactive

Compound: Cc1ccc2c(S(=O)(=O)N3CCNCC3)cc(S(=O)(=O)N3CCNCC3)c(O)c2n1
- Activity (MOLT-4 [4]): Active

Compound: CCCNS(=O)(=O)c1cc(S(=O)(=O)NCCC)c2ccc(C)nc2c1O
- Activity (MOLT-4 [2]): Toxic

Compound: COc1cc(/C=C/C(=O)CC(=O)/C=C/c2ccc(O)c(OC)c2)ccc1O
- Activity (MOLT-4 [11]): Active

Compound: CN(C)S(=O)(=O)c1ccc2c(S(=O)(=O)N(C)C)cc(S(=O)(=O)N(C)C)c(O)c2c1
- Activity (MOLT-4 [4]): inactive

Compound: Oc1cccc2ccccc12
- Activity (MOLT-4 [4]): inactive

Compound: CNS(=O)(=O)c1cc(S(=O)(=O)NC)c2ccc(C)nc2c1OC
- apoptosis inhibition (active/inactive) (MOLT-4 [1]): Active

Compound: Oc1ccc(Cl)c2cccnc12 [CLOXYQUIN]
- Activity (MOLT-4 [11]): Active
- Activity (MOLT-4 [2]): Toxic

Compound: CCN(CC)S(=O)(=O)c1cc(S(=O)(=O)N(CC)CC)c2ccc(C)nc2c1O
- Activity (MOLT-4 [2]): Toxic

Compound: COc1c(S(=O)(=O)N(C)C)cc(S(=O)(=O)N(C)C)c2ccc(C)nc12
- inhibition (MOLT-4 [3]): Active
- Activity [5]: Not Active
- apoptosis inhibition (active/inactive) (MOLT-4 [1]): Active
- Activity (MOLT-4 [2]): Non-toxic
- Activity (Jurkat [6]): inactive
- Activity [7]: inactive
- inhibition [8]: inactive
- Activity (Jurkat [9]): Non-toxic

Compound: Cc1ccc2c(S(=O)(=O)N(C)C)cc(Br)c(O)c2n1
- Activity (MOLT-4 [4]): Active
- Activity (MOLT-4 [2]): Non-toxic

Compound: CCOc1ccc(S(=O)(=O)N(C)C)c2ccc(C)nc12
- apoptosis inhibition (active/inactive) (MOLT-4 [1]): Active

Compound: CCOc1c(Br)cc(S(=O)(=O)N(C)C)c2ccc(C)nc12
- Activity (MOLT-4 [2]): Toxic

Compound: Cc1ccc2c(S(=O)(=O)NCCN)cc(S(=O)(=O)NCCN)c(O)c2n1
- Activity (MOLT-4 [4]): inactive

Compound: CCN(CC)S(=O)(=O)c1cc(S(=O)(=O)N(CC)CC)c2ccc(C)nc2c1OC
- apoptosis inhibition (active/inactive) (MOLT-4 [1]): Active
- Activity (MOLT-4 [2]): Toxic

Compound: CCOc1c(S(=O)(=O)N(C)C)cc(S(=O)(=O)N(C)C)c2ccc(C)nc12
- apoptosis inhibition (active/inactive) (MOLT-4 [1]): Active

Compound: Oc1cccc2cccnc12 [OXYQUINOLINE]
- Activity (MOLT-4 [11]): Active
- Activity (MOLT-4 [2]): Toxic

Compound: Cc1ccc2cccc(O)c2n1
- Activity (MOLT-4 [4]): Active

Compound: Cc1ccc2c(S(N)(=O)=O)cc(S(N)(=O)=O)c(O)c2n1
- Activity (MOLT-4 [4]): inactive
